Source: US10351522B2, “Sulfonamide derivative and pharmaceutically acceptable acid addition salt thereof” (UNIVERSITY OF TSUKUBA, priority 2015, dated 2019)
Like-named read-outs stand apart in the source and are kept apart here.

Legend:
[1] = target: T1, human OX2R (Homo sapiens, UniProt O43614); test: Agonist activity against OX2R: intracellular calcium (Fura-2AM, FDSS7000) in CHOOX2R cells; format: cell-based; settings: relative to orexin-A as full agonist (100%)
T1 construct: expressed in transfected cells; host or cells: CHO (Chinese hamster ovary) cells, line CHOOX2R, co-expressing NFAT-luciferase
T1 sequence (O43614 1-444): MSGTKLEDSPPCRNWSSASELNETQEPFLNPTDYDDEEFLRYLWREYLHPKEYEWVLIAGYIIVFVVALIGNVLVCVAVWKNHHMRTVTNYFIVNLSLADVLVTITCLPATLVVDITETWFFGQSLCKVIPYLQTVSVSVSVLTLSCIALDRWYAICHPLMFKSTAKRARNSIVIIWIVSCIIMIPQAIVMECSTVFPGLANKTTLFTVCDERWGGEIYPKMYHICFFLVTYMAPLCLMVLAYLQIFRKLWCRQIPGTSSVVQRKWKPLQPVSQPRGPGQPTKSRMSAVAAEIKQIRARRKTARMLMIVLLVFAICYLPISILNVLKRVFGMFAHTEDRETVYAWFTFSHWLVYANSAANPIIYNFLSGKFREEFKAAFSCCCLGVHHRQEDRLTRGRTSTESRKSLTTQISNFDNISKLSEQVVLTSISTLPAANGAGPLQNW
How it was run: (§1)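 Response is agonist activity at 0.1, 1.0 or 10 μM compound as a percentage of the orexin-A full-agonist maximum, taken from 340/380 nm Fura-2 ratio changes. Each cell line is CHO constitutively expressing human OX1R or OX2R with NFAT-luciferase, dye-loaded 60 min with 5 μM Fura-2AM; compound range 10^−7–10^−5 M, 1% DMSO.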

[2] = target: T2, human OX1R (Homo sapiens, UniProt O43613); test: Agonist activity against OX1R: intracellular calcium (Fura-2AM, FDSS7000) in CHOOX1R cells; format: cell-based; settings: for Emax at 0.1 µM / Emax at 1 µM / Emax at 10 µM: read-out: Response (%) OX1R
T2 construct: expressed in transfected cells; host or cells: CHO (Chinese hamster ovary) cells, line CHOOX1R, co-expressing NFAT-luciferase
T2 sequence (O43613 1-425): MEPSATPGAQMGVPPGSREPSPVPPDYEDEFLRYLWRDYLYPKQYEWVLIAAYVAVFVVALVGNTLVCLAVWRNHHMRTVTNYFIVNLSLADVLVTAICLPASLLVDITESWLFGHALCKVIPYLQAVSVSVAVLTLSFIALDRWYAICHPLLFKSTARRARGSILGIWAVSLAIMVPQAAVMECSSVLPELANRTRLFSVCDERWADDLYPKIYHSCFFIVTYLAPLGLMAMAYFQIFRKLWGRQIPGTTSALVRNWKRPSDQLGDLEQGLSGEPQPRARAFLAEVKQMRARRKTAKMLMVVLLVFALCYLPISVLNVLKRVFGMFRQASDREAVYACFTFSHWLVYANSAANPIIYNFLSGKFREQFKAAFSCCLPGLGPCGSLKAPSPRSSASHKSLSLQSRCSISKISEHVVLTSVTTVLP
How it was run: as §1

[3] = test compound 0.1 μM, relative to orexin-A as full agonist (100%)
[4] = test compound 1.0 μM, relative to orexin-A as full agonist (100%)
[5] = test compound 10 μM, relative to orexin-A as full agonist (100%)
[6] = 0.1 μM test compound, relative to orexin-A as full agonist (100%)
[7] = 1.0 μM test compound, relative to orexin-A as full agonist (100%)
[8] = 10 μM test compound, relative to orexin-A as full agonist (100%)

Compound	Response (%) OX2R ([1]; test compound 0.1 μM)	Response (%) OX2R ([1]; test compound 1.0 μM)	Response (%) OX2R ([1]; test compound 10 μM)	Response (%) OX1R [2, 3]	Response (%) OX1R [2, 4]	Response (%) OX1R [2, 5]	Response (%) OX2R ([1]; 0.1 μM test compound)	Response (%) OX2R ([1]; 1.0 μM test compound)	Response (%) OX2R ([1]; 10 μM test compound)	Response (%) OX1R [2, 6]	Response (%) OX1R [2, 7]	Response (%) OX1R [2, 8]	other results
COc1ccc(C(=O)NCC(C)(C)CN(C)C)cc1S(=O)(=O)Nc1cccc(NC(=O)Nc2cccc(N(C)C)c2)c1 [Example 107]	7%	9%	80%	<5%	<5%	<5%	–	–	–	–	–	–	–
COc1ccc(-c2cccc(C(=O)N(C)C)c2)cc1S(=O)(=O)Nc1cccc(N)c1 [Example 99]	19%	14%	76%	8%	8%	9%	–	–	–	–	–	–	–
COc1ccc(-c2cccc(C(=O)N(C)C)c2)cc1S(=O)(=O)Nc1cccc(NC(=O)Nc2ccccc2)c1 [Example 37, 4′-methoxy-N,N-dimethyl-3′-(N-(3-(3-phenylureido)phenyl)sulfamoyl)-[1,1′-biphenyl]-3-carboxamide]	–	–	–	–	–	–	55%	88%	81%	–	–	–	Emax at 0.1 µM [2, 6]: < 5%; Emax at 1 µM [2, 7]: < 5%; Emax at 10 µM [2, 8]: < 5%
COc1ccc(-c2cccc(C(=O)N(C)C)c2)cc1S(=O)(=O)Nc1cccc(NC(=N)Nc2cccc(C)c2)c1 [Example 78]	–	–	–	–	–	–	23%	89%	86%	<5%	<5%	14%	–
COc1ccc(-c2cccc(C(=O)N(C)C)c2)cc1S(=O)(=O)Nc1cccc(N(CCNC(=O)OC(C)(C)C)Cc2ccccc2)c1 [Example 91, tert-butyl (2-((benzyl)(3-(3′-(dimethylcarbamoyl)-4-methoxy-[1,1′-biphenyl]-3-ylsulfonamido)phenyl)amino)ethyl)carbamate]	<5%	<5%	35%	–	–	–	–	–	–	–	–	–	Emax at 0.1 µM [2, 3]: < 5%; Emax at 1 µM [2, 4]: < 5%; Emax at 10 µM [2, 5]: < 5%
COc1ccc(-c2cccc(C(=O)N(C)C)c2)cc1S(=O)(=O)Nc1cccc(Nc2ccccc2)c1 [Example 30, 4′-methoxy-N,N-dimethyl-3′-(N-(3-(phenylamino)phenyl)sulfamoyl)-[1,1′-biphenyl]-3-carboxamide]	–	–	–	–	–	–	<5%	<5%	39%	–	–	–	Emax at 0.1 µM [2]: < 5%; Emax at 1 µM [2]: < 5%; Emax at 10 µM [2]: < 5%
COc1ccc(-c2cccc(C(=O)N(C)C)c2)cc1S(=O)(=O)Nc1cccc(NC(=N)Nc2ccccc2)c1 [Example 77, 4′-methoxy-N,N-dimethyl-3′-(N-(3-(3-phenylguanidino)phenyl)sulfamoyl)-[1,1′-biphenyl]-3-carboxamide]	–	–	–	–	–	–	<5%	51%	99%	–	–	–	Emax at 0.1 µM [2, 6]: < 5%; Emax at 1 µM [2, 7]: < 5%; Emax at 10 µM [2, 8]: < 5%
COc1ccc(-c2cccc(C(=O)N(C)C)c2)cc1S(=O)(=O)Nc1cccc(N(C)C(=O)Nc2cccc(N(C)C)c2)c1 [Example 125, 3′-(N-(3-(3-(3-(dimethylamino)phenyl)-1-methylureido)phenyl)sulfamoyl)-4′-methoxy-N,N-dimethyl-[1,1′-biphenyl]-3-carboxamide]	42%	78%	79%	–	–	–	–	–	–	–	–	–	Emax at 0.1 µM [2]: < 5%; Emax at 1 µM [2]: < 5%; Emax at 10 µM [2]: < 5%
COc1ccc(-c2cccc(C(=O)N(C)C)c2)cc1S(=O)(=O)Nc1cccc(NC(=O)Nc2cccc(C)c2)c1 [Example 38]	–	–	–	–	–	–	68%	82%	71%	<5%	<5%	<5%	–
COc1ccc(-c2cccc(C(=O)N(C)C)c2)cc1S(=O)(=O)Nc1cccc(NC(=O)Nc2ccccc2Br)c1 [Example 43]	–	–	–	–	–	–	102%	105%	104%	<5%	<5%	10%	–
COc1ccc(-c2cccc(C(=O)N(C)C)c2)cc1S(=O)(=O)Nc1cccc(NC(=O)Nc2ccc(NC(=N)NC(=O)OC(C)(C)C)cc2)c1 [Example 59]	–	–	–	–	–	–	<5%	18%	52%	<5%	<5%	<5%	–
CCN(Cc1ccccc1)C(=O)c1ccc(OC)c(S(=O)(=O)Nc2cccc(NC(=O)Nc3ccc(N(C)C)cc3)c2)c1 [Example 110]	38%	86%	109%	<5%	<5%	<5%	–	–	–	–	–	–	–
COc1ccc(-c2cccc(C(=O)N(C)C)c2)cc1S(=O)(=O)Nc1cccc(NC(=O)NCc2ccccc2)c1 [Example 66]	–	–	–	–	–	–	79%	70%	60%	6%	6%	7%	–
CN(C)C(=O)c1cccc(-c2ccc(O)c(S(=O)(=O)Nc3cccc(NC(=O)Nc4cccc(N(C)C)c4)c3)c2)c1 [Example 115]	<5%	8%	62%	<5%	<5%	<5%	–	–	–	–	–	–	–
COc1ccc(-c2cccc(C(=O)N(C)C)c2)cc1S(=O)(=O)Nc1cccc(NC(=O)Nc2cccnc2)c1 [Example 69]	–	–	–	–	–	–	7%	90%	127%	6%	6%	6%	–
COc1ccc(-c2cccc(C(=O)N(C)C)c2)cc1S(=O)(=O)Nc1cccc(N2CCN(c3cccc(N(C)C)c3)C2=O)c1 [Example 130]	64%	99%	106%	<5%	<5%	6%	–	–	–	–	–	–	–
COc1ccc(-c2cccc(C(=O)N(C)C)c2)cc1S(=O)(=O)Nc1cccc(NC(=O)Nc2ccccc2[N+](=O)[O-])c1 [Example 46]	–	–	–	–	–	–	74%	101%	115%	<5%	<5%	8%	–
COc1ccc(-c2cccc(C(=O)N(C)C)c2)cc1S(=O)(=O)Nc1cccc(Nc2c(Nc3ccc(C)cc3)c(=O)c2=O)c1 [Example 84]	6%	6%	21%	<5%	<5%	10%	–	–	–	–	–	–	–
COc1ccc(-c2cccc(C(=O)N(C)C)c2)cc1S(=O)(=O)Nc1cccc(NS(=O)(=O)N(C)C)c1 [Example 87]	<5%	10%	56%	<5%	<5%	<5%	–	–	–	–	–	–	–
COc1cccc(NC(=O)Nc2cccc(NS(=O)(=O)c3cc(-c4cccc(C(=O)N(C)C)c4)ccc3OC)c2)c1 [Example 44]	–	–	–	–	–	–	100%	104%	95%	<5%	<5%	10%	–
COc1ccc(-c2cccc(C(=O)N(C)C)c2)cc1S(=O)(=O)Nc1cccc(NC(=O)c2ccccc2N(C)C)c1 [Example 6]	–	–	–	–	–	–	9%	17%	32%	7%	7%	6%	–
